The subject of one test is pERK in ASPC1 cells. Briefly: Inhibition of KRas phosphorylation of ERK (Cisbio HTRF pERK assay). The conditions noted are these: Homo sapiens, ASPC1, read-out: Inhibition (HTRF IC50) of KRas-mediated Phosphorylation of ERK, AsPC-1. Background: In TR-FRET formats the signal depends on donor and acceptor labels being close together.
In another test the target is KRas G12D (Homo sapiens, UniProt P01116, G12D). Briefly: biochemical.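 Further: TR-FRET displacement binding assay on KRas, read after a one-hour incubation at room temperature, IC50 fitted from percent-of-control values.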
Sequence of KRas G12D (P01116 1-169 isoform P01116-2 G12D): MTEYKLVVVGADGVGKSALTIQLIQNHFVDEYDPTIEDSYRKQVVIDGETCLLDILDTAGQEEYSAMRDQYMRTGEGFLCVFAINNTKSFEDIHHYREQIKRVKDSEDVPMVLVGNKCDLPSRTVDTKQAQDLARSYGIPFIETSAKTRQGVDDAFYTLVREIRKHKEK
Another test concerns the target KRas G12V (Homo sapiens, UniProt P01116, G12V). In words: biochemical.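 Further: KRas binding measured by TR-FRET displacement at room temperature, IC50 fitted from percent of control values.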
The target of another test is KRas G12R (Homo sapiens, UniProt P01116, G12R). Briefly: biochemical.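 Further: TR-FRET displacement assay of compound binding to KRas, read after one hour at room temperature, potency from a four-parameter fit of percent-of-control values.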
Sequence of KRas G12R (P01116 1-169 isoform P01116-2 G12R): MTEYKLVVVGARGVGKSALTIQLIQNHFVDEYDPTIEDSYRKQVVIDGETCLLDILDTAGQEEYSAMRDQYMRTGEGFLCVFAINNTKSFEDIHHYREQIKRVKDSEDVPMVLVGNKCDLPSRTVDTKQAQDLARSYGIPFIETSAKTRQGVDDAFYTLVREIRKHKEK
A further test relates to pERK in H727 cells. In words: Inhibition of KRas phosphorylation of ERK (Cisbio HTRF pERK assay). Particulars: Homo sapiens, NCI-H727, read-out: Inhibition (HTRF IC50) of KRas-mediated Phosphorylation of ERK, H727.
A further test addresses KRas G12S (Homo sapiens, UniProt P01116, G12S). In words: biochemical.
The target of a further test is KRas WT (Homo sapiens, UniProt P01116). In words: biochemical.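 Further: binding to KRas read as TR-FRET displacement after a one-hour room-temperature incubation, IC50 derived from percent-of-control values.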
Sequence of KRas WT (P01116 1-169 isoform P01116-2): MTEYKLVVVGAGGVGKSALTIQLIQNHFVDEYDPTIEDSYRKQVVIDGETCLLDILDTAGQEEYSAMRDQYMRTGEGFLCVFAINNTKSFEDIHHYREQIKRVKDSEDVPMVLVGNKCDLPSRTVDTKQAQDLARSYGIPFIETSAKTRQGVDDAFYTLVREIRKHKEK
The target of a further test is KRas G12A (Homo sapiens, UniProt P01116, G12A). In words: biochemical.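 Further: binding to KRas measured by TR-FRET displacement after one hour at room temperature, IC50 from a four-parameter fit of percent-of-control values.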
Sequence of KRas G12A (P01116 1-169 isoform P01116-2 G12A): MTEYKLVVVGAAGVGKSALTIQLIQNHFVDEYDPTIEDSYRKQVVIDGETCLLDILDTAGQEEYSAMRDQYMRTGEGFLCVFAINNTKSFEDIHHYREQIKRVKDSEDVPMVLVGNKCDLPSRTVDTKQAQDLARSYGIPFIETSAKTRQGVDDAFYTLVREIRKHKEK
For a further test, the target named is KRas G12C (Homo sapiens, UniProt P01116, G12C). In words: biochemical.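 Further: binding to KRas assessed by TR-FRET displacement after one hour incubation at room temperature, potency fitted from percent-of-control values.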
Sequence of KRas G12C (P01116 1-169 isoform P01116-2 G12C): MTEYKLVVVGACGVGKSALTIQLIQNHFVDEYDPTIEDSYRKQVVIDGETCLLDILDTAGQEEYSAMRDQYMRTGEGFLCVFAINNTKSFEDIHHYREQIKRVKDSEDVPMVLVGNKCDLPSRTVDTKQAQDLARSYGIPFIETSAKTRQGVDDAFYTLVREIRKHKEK

Where only a bound is given, the exact number is not on record here.

Sequence of KRas G12V (P01116 1-169 isoform P01116-2 G12V): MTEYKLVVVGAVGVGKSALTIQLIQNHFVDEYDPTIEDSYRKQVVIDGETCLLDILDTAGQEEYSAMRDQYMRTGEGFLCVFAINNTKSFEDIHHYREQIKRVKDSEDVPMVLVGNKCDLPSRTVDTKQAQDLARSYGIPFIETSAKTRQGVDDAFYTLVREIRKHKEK
Sequence of KRas G12S (P01116 1-169 isoform P01116-2 G12S): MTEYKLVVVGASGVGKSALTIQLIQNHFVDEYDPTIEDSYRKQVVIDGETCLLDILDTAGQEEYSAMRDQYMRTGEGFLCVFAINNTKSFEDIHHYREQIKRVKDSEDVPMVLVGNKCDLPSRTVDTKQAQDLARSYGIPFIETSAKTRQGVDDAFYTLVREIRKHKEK

The IC50 is the concentration at which inhibition is half-maximal. Regarding `Cc1cc2[nH]ncc2c(-c2ncc3c(N4CCCC5(CNC(=O)C5)C4)nc(OCC45CCCN4CCC5)nc3c2F)c1C` (stereo not shown) [Example 26, 7-(7-(5,6-dimethyl-1H-indazol-4-yl)-8-fluoro-2-((hexahydro-1H-pyrrolizin-7a-yl)methoxy)pyrido[4,3-d]pyrimidin-4-yl)-2,7-diazaspiro[4.5]decan-3-one], the IC50 was not below 10000 nM in the test on pERK in ASPC1 cells; 845 nM against KRas G12D; 1260 nM at KRas G12V; 2320 nM against KRas G12R; not below 10000 nM in the test with pERK in H727 cells.

On to `CCc1c(F)ccc2cc(O)cc(-c3ncc4c(N(C)CC5CC(=O)N5)nc(OC[C@@]56CCCN5C[C@H](F)C6)nc4c3F)c12` (stereo partly shown) [Example 384], for which the IC50 is not below 10000 nM with pERK in ASPC1 cells; 38 nM against KRas G12D; 12 nM against KRas G12V; 32 nM on KRas G12R; not below 10000 nM in the test on pERK in H727 cells.

`O=C1NC(=O)C2(CCCN(c3nc(OCC45CCCN4CCC5)nc4c(F)c(-c5cccc6cccc(CF)c56)ncc34)C2)N1` (stereo not shown) [Example 462, 7-(8-fluoro-7-(8-(fluoromethyl)naphthalen-1-yl)-2-((hexahydro-1H-pyrrolizin-7a-yl)methoxy)pyrido[4,3-d]pyrimidin-4-yl)-1,3,7-triazaspiro[4.5]decane-2,4-dione]: the IC50 against KRas G12D turned out to be 880 nM; on KRas G12V, 350 nM; against KRas G12S, 311 nM; against KRas WT, 493 nM; against KRas G12R, 418 nM; on KRas G12A, 321 nM. Moreover, the IC50 at KRas G12C is 430 nM.

Regarding `NS(=O)(=O)CC1CCCN(c2nc(OCC34CCCN3CCC4)nc3c(F)c(-c4cccc5cccc(C(F)F)c45)ncc23)C1` (stereo not shown) [Example 463, 1-(1-(7-(8-(difluoromethyl)naphthalen-1-yl)-8-fluoro-2-((hexahydro-1H-pyrrolizin-7a-yl)methoxy)pyrido[4,3-d]pyrimidin-4-yl)piperidin-3-yl)methanesulfonamide], the IC50 on KRas G12D came to 6490 nM; on KRas G12V, 3060 nM; on KRas G12S, 1400 nM; against KRas WT, 2400 nM; on KRas G12R it was 1360 nM; against KRas G12A, 1550 nM. The molecule further yielded an IC50 against KRas G12C of 2150 nM.

On to `O=C1NC(=O)C2(CCCN(c3nc(OCC45CCCN4CCC5)nc4c(F)c(-c5cccc6cccc(C(F)F)c56)ncc34)C2)N1` (stereo not shown) [Example 464, 7-(7-(8-(difluoromethyl)naphthalen-1-yl)-8-fluoro-2-((hexahydro-1H-pyrrolizin-7a-yl)methoxy)pyrido[4,3-d]pyrimidin-4-yl)-1,3,7-triazaspiro[4.5]decane-2,4-dione], for which the IC50 at KRas G12D was 986 nM; on KRas G12V it was 469 nM; at KRas G12S it was 355 nM; against KRas WT it was 661 nM; against KRas G12R, 513 nM; against KRas G12A it was 507 nM. Besides, half-maximal inhibition against KRas G12C (IC50) required 459 nM.

For `O=C1CC2(CCCN(c3nc(OCC45CCCN4CCC5)nc4c(F)c(-c5cccc6cccc(C(F)F)c56)ncc34)C2)N1` (stereo not shown) [Example 466, 6-(7-(8-(difluoromethyl)naphthalen-1-yl)-8-fluoro-2-((hexahydro-1H-pyrrolizin-7a-yl)methoxy)pyrido[4,3-d]pyrimidin-4-yl)-1,6-diazaspiro[3.5]nonan-2-one], the IC50 was determined as 2320 nM on KRas G12D; 1660 nM against KRas G12V; 2140 nM on KRas G12S; 2680 nM on KRas WT; 2260 nM on KRas G12R; 3310 nM against KRas G12A. In addition, the IC50 against KRas G12C came to 2310 nM.

For `O=C1CC2(CCCN(c3nc(OCC45CCCN4CCC5)nc4c(F)c(-c5cccc6cccc(C(F)(F)F)c56)ncc34)C2)N1` (stereo not shown) [Example 467, 6-(8-fluoro-2-((hexahydro-1H-pyrrolizin-7a-yl)methoxy)-7-(8-(trifluoromethyl)naphthalen-1-yl)pyrido[4,3-d]pyrimidin-4-yl)-1,6-diazaspiro[3.5]nonan-2-one], the IC50 at KRas G12D is 915 nM; against KRas G12V, 651 nM; at KRas G12S it was 1140 nM; on KRas WT, 1480 nM; at KRas G12R it was 1020 nM; against KRas G12A it was 968 nM. For the same molecule, the IC50 at KRas G12C was found to be 1110 nM.

With `O=C1CC2(CCCN(c3nc(OCC45CCCN4CCC5)nc4c(F)c(-c5cccc6cccc(CF)c56)ncc34)C2)N1` (stereo not shown) [Example 468, 6-(8-fluoro-7-(8-(fluoromethyl)naphthalen-1-yl)-2-((hexahydro-1H-pyrrolizin-7a-yl)methoxy)pyrido[4,3-d]pyrimidin-4-yl)-1,6-diazaspiro[3.5]nonan-2-one], the IC50 is 2880 nM at KRas G12D; 2310 nM against KRas G12V; 2480 nM on KRas G12S; 3020 nM against KRas WT; 2900 nM on KRas G12R; 2810 nM at KRas G12A. Besides, the half-maximal inhibitory concentration (IC50) on KRas G12C came out at 2410 nM.

Regarding `CSc1cccc2cccc(-c3ncc4c(N5CCCC6(CC(=O)N6)C5)nc(OCC56CCCN5CCC6)nc4c3F)c12` (stereo not shown) [Example 469, 6-(8-fluoro-2-((hexahydro-1H-pyrrolizin-7a-yl)methoxy)-7-(8-(methylthio)naphthalen-1-yl)pyrido[4,3-d]pyrimidin-4-yl)-1,6-diazaspiro[3.5]nonan-2-one], the IC50 on KRas G12D stood at 127 nM; against KRas G12V, 105 nM; on KRas G12S it was 146 nM; against KRas WT, 196 nM; at KRas G12R, 149 nM; on KRas G12A, 180 nM. This molecule came in with an IC50 against KRas G12C of 135 nM.

On to `O=C1CC2(CCCN(c3nc(OCC45CCCN4CCC5)nc4c(F)c(-c5cccc6cccc(CCF)c56)ncc34)C2)N1` (stereo not shown) [Example 470, 6-(8-fluoro-7-(8-(2-fluoroethyl)naphthalen-1-yl)-2-((hexahydro-1H-pyrrolizin-7a-yl)methoxy)pyrido[4,3-d]pyrimidin-4-yl)-1,6-diazaspiro[3.5]nonan-2-one], for which the 50% inhibitory concentration (IC50) against KRas G12D is 406 nM; against KRas G12V, 355 nM; against KRas G12S it was 341 nM; against KRas WT, 475 nM; against KRas G12R, 503 nM; against KRas G12A, 347 nM. This molecule also yielded an IC50 at KRas G12C of 348 nM.

Turning to `Cc1cc2[nH]ncc2c(-c2ncc3c(N4CCCC(C)(O)C4)nc(OC[C@@]45CCCN4C[C@H](F)C5)nc3c2F)c1C` (stereo partly shown) [Example 471], the IC50 against KRas G12D was found to be 309 nM; against KRas G12V it was 427 nM; against KRas G12S it was 391 nM; at KRas WT, 362 nM; on KRas G12R, 1070 nM; against KRas G12A, 332 nM. Besides, on KRas G12C, 459 nM corresponded to half-maximal inhibition (IC50).

Turning to `Fc1c(-c2cccc3cccc(Cl)c23)ncc2c(NCCCOC(F)F)nc(OCC34CCCN3CCC4)nc12` [Example 474, 7-(8-chloronaphthalen-1-yl)-N-(3-(difluoromethoxy)propyl)-8-fluoro-2-((tetrahydro-1H-pyrrolizin-7a(5H)-yl)methoxy)pyrido[4,3-d]pyrimidin-4-amine], the IC50 on KRas G12D was 8600 nM; against KRas G12V, 1750 nM; on KRas G12S, 3450 nM; against KRas WT it was 6170 nM; against KRas G12R it was 3630 nM; at KRas G12A it was 2950 nM. The same molecule gave an IC50 against KRas G12C of 2390 nM.

For `NC(=O)C(O)CNc1nc(OCC23CCCN2CCC3)nc2c(F)c(-c3cccc4cccc(Cl)c34)ncc12` (stereo not shown) [Example 475, 3-((7-(8-chloronaphthalen-1-yl)-8-fluoro-2-((tetrahydro-1H-pyrrolizin-7a(5H)-yl)methoxy)pyrido[4,3-d]pyrimidin-4-yl)amino)-2-hydroxypropanamide], the half-maximal inhibitory concentration (IC50) is 8550 nM against KRas G12D; 1460 nM at KRas G12V; 2750 nM on KRas G12S; 4600 nM against KRas WT; 2620 nM against KRas G12R; 3680 nM against KRas G12A. For the same molecule, the half-maximal inhibitory concentration (IC50) on KRas G12C was found to be 2750 nM.

As to `CCc1c(F)ccc2cc(O)cc(-c3ncc4c(NCC5CNC5=O)nc(OC[C@@]56CCCN5C[C@H](F)C6)nc4c3F)c12` (stereo partly drawn) [Example 485, 3-(((7-(8-ethyl-7-fluoro-3-hydroxynaphthalen-1-yl)-8-fluoro-2-(((2R,7aS)-2-fluorotetrahydro-1H-pyrrolizin-7a(5H)-yl)methoxy)pyrido[4,3-d]pyrimidin-4-yl)amino)methyl)azetidin-2-one], the IC50 in the test with pERK in ASPC1 cells was 6620 nM; at KRas G12D it was 9 nM; against KRas G12V, not above 2 nM; at KRas G12R it was 3 nM; in the test on pERK in H727 cells, 1220 nM.

`O=S1(=O)NC[C@@]2(CCCN(c3nc(OC[C@@]45CCCN4C[C@H](F)C5)nc4c(F)c(-c5cc(O)cc6ccc(F)c(Cl)c56)ncc34)C2)N1` [Example 516, (S)-7-(7-(8-chloro-7-fluoro-3-hydroxynaphthalen-1-yl)-8-fluoro-2-(((2R,7aS)-2-fluorotetrahydro-1H-pyrrolizin-7a(5H)-yl)methoxy)pyrido[4,3-d]pyrimidin-4-yl)-2-thia-1,3,7-triazaspiro [4.5]decane2,2-dioxide]: the IC50 turned out to be 9320 nM in the test with pERK in ASPC1 cells and 5690 nM in the test on pERK in H727 cells.

Values taken from patent publication US12398154B2, “Azaquinazoline pan-KRas inhibitors” (Mirati Therapeutics, Inc., priority 2020, dated 2025).
